Measurements: publication PMC6161602, “Synthesis and characterisation of (Z)-styrylbenzene derivatives as potential selective anticancer agents” (Journal of Enzyme Inhibition and Medicinal Chemistry, 2018)

Experiments:
Assay type in all cases: cell-based, human
[1] = tested on: MCF-7 breast cancer cell; test: MTT cell growth inhibition assay, MCF-7
Method in brief: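 Cells were seeded at 30–40% density, left to adhere 1 day, then exposed to compound at 1, 10, 50 and 100 µM for 48 h at 37 °C, 5% CO2. MTT (2 mg/mL final) was added for 4 h, formazan dissolved in DMSO and absorbance read at 492 nm.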

[2] = tested on: BEL-7402 cells; test: Analysis for cell cycle by flow cytometry; details: BEL-7402, 12 h incubation, concentration-dependent increase from-to (0.01, 0.05, 0.1 µM)
Method: BEL-7402 cells were plated 6-well plates with 5.0 × 10^5 cells/well for overnight (O/N) and were synchronised at the G0 phase by serum starvation (0.1% FBS in RPMI-1640) for 24 h. Then the cells were incubated with 0.01, 0.05, 0.1 µM of 6h and 0.1 μM of taxol, respectively. Vehicle group was treated with 0.1% DMSO. Following 12 h of incubation, the cells were detached with 0.05% trypsin/5 mM EDTA and centrifuged at 1000 rpm for 10 min, and fixed in 70% ethanol at −20 °C for O/N. Then, the cells were subsequently analysed the cell cycle distribution by flow cytometry using a FACSCalibur flow cytometer with Cell Quest software (Becton-Dickinson, Franklin Lakes, NJ, USA), plotting at least 30,000 events per sample[22]. The percentage of cells in the G0/G1, S, and G2/M phases of the cell cycle were determined using the ModFit LT version 4.0 software package (Verity Software, Topsham, ME, USA).

[3] = tested on: BEL-7402 cells; test: Colony formation assay; details: BEL-7402, exposure > 10 days, fitted from inhibition ratio of colony formation
Method: A previously described colony formation assay was used[7] with slight modification. 1 × 10^4 BEL-7402 cells/well were seeded into 6-well plates and then stimulated with the indicated concentration of 6h, taxol, or DMSO. The plates were removed from incubation when colonies were large enough to count (>50 cells). Colonies were then fixed and stained with 1 × Giemsa solution, rinsed, allowed to dry, and counted. All the experiments were repeated independently at least three times. The LD50 value for 6h was determined using SigmaPlot II.

`COc1cc(/C(C#N)=C/c2ccc(C)cc2)cc(OC)c1OC` [Compound 6h, (Z)-3-(p-Tolyl)-2-(3,4,5-trimethoxyphenyl)acrylonitrile] was tested. Which IC50 ([1]; Homo sapiens, MCF7, MTT, 48 h incubation, MCF-7) did it give?
Its IC50 is 2610 ± 980 nM.

And the “SI IC50 (MCF-10A/MCF-7)” value ([1]; selectivity index, IC50 (MCF-10A)/IC50 (MCF-7))?
The value was >3.6.

And the “percentage of S cell population” value [2]?
Its value is 4.44–19.35%.

And the “LD50 (colony formation)” value [3]?
Its value is 0.056 ± 0.0047 µM.
